Assay: Aggregation in aqueous solution by particle-size analyzer (light scattering)
Assay type: physicochemical
Conditions: aqueous solution (10% DMSO), 4 and 0.04 μg/mL solutions
Description: Thus, the aggregation properties of 6 and paclitaxel were studied as a function of concentration in aqueous solution (10% DMSO) using a Brookhaven 90Plus submicrometer particle-size analyzer.

CC(=O)O[C@H]1C(=O)[C@@]2(C)[C@H]([C@H](OC(=O)c3ccccc3)[C@]3(O)C[C@H](OC(=O)[C@H](O)[C@@H](NC(=O)c4ccccc4)c4ccccc4)C(C)=C1C3(C)C)[C@]1(OC(C)=O)CO[C@@H]1C[C@@H]2O [paclitaxel, Paclitaxel]
light scattering (aggregation): did not show any scattering

— patent US20080175892A1, “Nanostructure-Drug Conjugates” (priority 2006, published 2008)
